Laboratory results as given in patent US11274091B2 (Dizal (Jiangsu) Pharmaceutical Co., Ltd., priority 2018, dated 2022).
pIC50: −log10 of the molar value.

Assays:
human TRPC6 ion channel = human TRPC6 ion channel (Homo sapiens (Human), UniProt Q9Y210); experiment: Inhibition of TRPC6 FLIPR Assay (membrane potential dye, OAG challenge); type: cell-based; details: TRPC6-HEK293 cells, OAG at EC80; most potent isolated isomer; mean of minimum 2 experiments
From the text: (§1) TRPC3 and TRPC6 channel opening causes an influx of predominantly calcium and sodium cations that result in a change in the electrical potential across the cell membrane. This change in membrane potential can be monitored using membrane potential dyes in the following FLIPR™ (Fluorescent Imaging Plate Reader) assays.
TRPC6-HEK293 was purchased from PerkinElmer (PerkinElmer, Product No.: AX-012-C), HEK293 cells were transfected using the pcDNA3.1(+)expression vector containing the coding sequence of the human TRPC6 ion channel. The coding sequence used is identical to coding sequence of GenBank NM_004621 with the exception of 2 synonym variations (t1683c and c2529t). The cells were grown in DMEM+10% fetal bovine serum (FBS) 0.5 mg/ml. Geneticin (ion channel expression selection) as culture medium.
TRPC6 cells were plated at 10K cells/well into 384-well polystyrene plates and then grown for 24 hs at 37° C. plus 5% CO2. After this time the media was aspirated using a Tecan plate washer and then replaced with 40 μL of dye loading buffer (130 mM NaCl, 5 mM KCl, 0.15 mM CaCl2, 1 mM MgCl2, 20 mM HEPES ((4-(2-hydroxyethyl)-1-piperazineethanesulfonic acid)), 5 mM NaHCO3). For TRPC6, a final concentration of 0.5× is used. Cells with membrane potential dye were then incubated for 30 mins at room temperature prior to beginning the experiments.
(§2) To test the effects of compounds on TRPC6 activity, compounds were first diluted in 100% DMSO to 3× the final concentration to be used in the experiments. Typical dose-response experiments ranged from 10 μM (top concentration) to 0.5 nM (lowest concentration). Ten microliters of 0.5× compound in 0.5% DMSO were added to 40 μL of cells incubated with membrane potential dye. Compound addition was performed on a FLIPRTetra or a FLIPR 384 (MDS Analytical Technologies, Molecular Devices, Sunnyvale, Calif., 94089, USA). After a 400 second incubation with compound, 12.5 of OAG (1-oleoyl-2-acetyl-sn-glycerol (OAG), Sigma, Gillingham, Dorset, SP8 4XT Cat #O6754-10 MG) was added at 5× the EC80 (typical EC80 for TRPC6=3 μM final). The OAG challenge is designed to measure the inhibitory activity of compounds on receptor-operated TRPC6 activation.
(§3) All data was normalized to low controls (buffer alone) or high controls (OAG EC100). Data was analyzed using an XC50 curve fitting module and reported as pIC50 or IC50 values. The values are averaged to determine a mean value, for a minimum of 2 experiments.

human TRPC3 ion channel = human TRPC3 ion channel (Homo sapiens (Human), UniProt Q13507); experiment: Inhibition of TRPC3 FLIPR Assay (membrane potential dye, OAG challenge); type: cell-based; details: TRPC3 transfected AD293 cells, OAG at EC80; most potent isolated isomer; mean of minimum 2 experiments
From the text: as §1
AD293 cells were transfected using the PLVX-puro lentivirus vector containing the coding sequence of the human TRPC3 ion channel. Puromycin-resistant cells were selected by treating with […] puromycin for two weeks. Monoclonal cells were obtained by limiting dilution and compared for their response to OAG in a membrane potential assay. The cells were grown in DMEM+10% fetal bovine serum (FBS)+1 μg/mL puromycin as culture medium.
TRPC3 cells were plated at 9K/well into 384-well polystyrene plates. Cells were grown for 24 h at 37° C. plus 5% CO2 after which media was aspirated using a Tecan plate washer and replaced with 40 μL of dye loading buffer (130 mM NaCl, 5 mM KCl, 0.15 mM CaCl2, 1 mM MgCl2, 20 mM HEPES ((4-(2-hydroxyethyl)-1-piperazineethanesulfonic acid)), 5 mM NaHCO3). For TRPC3 a final concentration of 0.5× membrane potential dye (Molecular Devices Membrane Blue, FLIPR Membrane Potential Assay Kit (bulk), Product #R8034(BLUE), Molecular Devices, Sunnyvale, Calif., 94089, USA) was used. Cells with membrane potential dye were then incubated for 30 mins at room temperature prior to beginning the experiments.
as §2, with “TRPC3” for “TRPC6”, “5×” for “0.5×”, “Technologies).” for “Technologies, Molecular Devices, Sunnyvale, Calif., 94089, USA).”, “12.5 μL” for “12.5”, “OAG” for “OAG (1-oleoyl-2-acetyl-sn-glycerol (OAG), Sigma, Gillingham, Dorset, SP8 4XT Cat #O6754-10 MG)”, “TRPC3=2” for “TRPC6=3”
as §3

Chain of human TRPC3 ion channel (Q13507 whole entry): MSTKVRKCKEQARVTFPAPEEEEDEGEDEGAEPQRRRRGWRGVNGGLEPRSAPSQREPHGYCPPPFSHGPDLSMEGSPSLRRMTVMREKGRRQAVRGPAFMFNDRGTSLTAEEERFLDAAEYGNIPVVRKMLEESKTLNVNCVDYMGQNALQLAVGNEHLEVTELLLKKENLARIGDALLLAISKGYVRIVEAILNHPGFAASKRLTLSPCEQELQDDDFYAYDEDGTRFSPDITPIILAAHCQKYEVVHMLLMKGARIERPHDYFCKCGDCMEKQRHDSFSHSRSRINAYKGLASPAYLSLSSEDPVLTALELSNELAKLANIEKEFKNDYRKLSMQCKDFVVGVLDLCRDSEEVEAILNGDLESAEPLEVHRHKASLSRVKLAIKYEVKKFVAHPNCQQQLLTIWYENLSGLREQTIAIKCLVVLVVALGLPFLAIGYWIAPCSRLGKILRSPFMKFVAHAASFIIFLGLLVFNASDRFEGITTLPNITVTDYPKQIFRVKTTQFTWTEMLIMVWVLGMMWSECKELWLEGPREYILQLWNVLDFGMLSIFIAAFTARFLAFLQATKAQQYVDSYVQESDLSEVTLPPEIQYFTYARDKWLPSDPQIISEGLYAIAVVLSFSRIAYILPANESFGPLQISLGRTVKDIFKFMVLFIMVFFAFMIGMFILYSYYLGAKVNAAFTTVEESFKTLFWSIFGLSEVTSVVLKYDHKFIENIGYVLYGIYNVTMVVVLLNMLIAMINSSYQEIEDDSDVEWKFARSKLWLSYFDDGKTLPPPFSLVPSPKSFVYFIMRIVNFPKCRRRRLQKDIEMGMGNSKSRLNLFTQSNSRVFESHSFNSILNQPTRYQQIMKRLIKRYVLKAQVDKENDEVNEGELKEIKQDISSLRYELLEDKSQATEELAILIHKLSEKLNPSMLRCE
Chain of human TRPC6 ion channel (Q9Y210 whole entry): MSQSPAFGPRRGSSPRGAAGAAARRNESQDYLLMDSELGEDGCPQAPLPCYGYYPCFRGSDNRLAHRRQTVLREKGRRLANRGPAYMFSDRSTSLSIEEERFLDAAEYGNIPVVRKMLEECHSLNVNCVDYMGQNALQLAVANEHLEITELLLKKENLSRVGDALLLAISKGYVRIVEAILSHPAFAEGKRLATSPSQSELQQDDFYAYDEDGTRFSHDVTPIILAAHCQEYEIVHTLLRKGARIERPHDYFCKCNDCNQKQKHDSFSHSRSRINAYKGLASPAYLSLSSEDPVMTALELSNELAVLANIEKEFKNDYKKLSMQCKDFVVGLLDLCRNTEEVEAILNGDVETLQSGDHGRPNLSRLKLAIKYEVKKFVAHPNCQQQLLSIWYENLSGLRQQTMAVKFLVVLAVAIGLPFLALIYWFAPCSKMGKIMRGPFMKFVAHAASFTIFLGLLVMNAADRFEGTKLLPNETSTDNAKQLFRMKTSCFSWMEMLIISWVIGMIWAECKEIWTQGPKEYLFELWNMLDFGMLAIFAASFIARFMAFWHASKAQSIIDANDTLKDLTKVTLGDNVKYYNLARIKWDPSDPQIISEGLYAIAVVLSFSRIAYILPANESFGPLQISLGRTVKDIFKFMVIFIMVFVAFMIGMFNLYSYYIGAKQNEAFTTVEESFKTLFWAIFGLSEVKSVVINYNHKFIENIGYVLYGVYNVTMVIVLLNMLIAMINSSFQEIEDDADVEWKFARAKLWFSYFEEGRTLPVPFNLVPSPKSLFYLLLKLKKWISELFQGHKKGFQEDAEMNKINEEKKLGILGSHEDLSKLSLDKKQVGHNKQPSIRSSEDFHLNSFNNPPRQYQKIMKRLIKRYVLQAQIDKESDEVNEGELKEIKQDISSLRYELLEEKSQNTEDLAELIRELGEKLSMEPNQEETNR

| Compound | pIC50 (human TRPC6 ion channel) | pIC50 (human TRPC3 ion channel) |
| --- | --- | --- |
| NC1CC(F)CN(C2CC(c3ccc(F)cc3)CC2Oc2ccncn2)C1 (stereo not shown) [Example 29, 5-fluoro-1-[4-(4-fluorophenyl)-2-pyrimidin-4-yloxy-cyclopentyl]piperidin-3-amine] | 8.46 | 8.43 |
| N#Cc1ccn(C2CC(c3ccc(F)cc3)CC2N2CCCC(N)C2)c1 (stereo not shown) [Example 4, 1-[2-(3-amino-1-piperidyl)-4-(4-fluorophenyl)cyclopentyl]pyrrole-3-carbonitrile] | 8.27 | 8.27 |
| N#Cc1ccc(OC2CC(c3ccc(F)c(O)c3)CC2N2CCCC(N)C2)cc1 (stereo not shown) [Example 14, 4-[2-(3-amino-1-piperidyl)-4-(4-fluoro-3-hydroxy-phenyl)cyclopentoxy]benzonitrile] | 7.76 | 7.23 |

More lines, now with the values ahead:

| pIC50 (human TRPC6 ion channel) | pIC50 (human TRPC3 ion channel) | Compound |
| --- | --- | --- |
| 7.75 | 7.49 | NC1CCCN(C2CC(c3ccc(F)cc3)CC2Oc2cccnn2)C1 (stereo not shown) [Example 28, 1-[4-(4-fluorophenyl)-2-pyridazin-3-yloxy-cyclopentyl]piperidin-3-amine] |
| 8.02 | 7.59 | N#Cc1ccc(OC2CC(c3ccc(F)cc3)CC2N2CCC[C@@H](N)C2)nc1 (single isomer, unassigned) [Example 26] |
